# Test results published in US6358885B1, “Substituted phenylheterocyclic herbicides” (Mississippi State University, priority 1992, dated 2002).
# Tests used:
# Test in all cases: Test B preemergence/postemergence greenhouse plant response rating 0 to 10
# barley = assay type: in vivo, Hordeum vulgare; conditions: for Plant response rating, Barley: 0 to 10 scale
# Method in brief: (§1)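 Test chemicals were sprayed onto freshly planted seed and, concurrently, onto young plants between the one and four leaf stage. After a twelve- to sixteen-day greenhouse period, each species was visually compared with untreated controls.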
# barnyardgrass = assay type: in vivo, Echinochloa crus-galli; conditions: for Plant response rating, Barnyardgrass: 0 to 10 scale
# Method in brief: as §1
# bedstraw = assay type: in vivo, Galium aparine; conditions: for Plant response rating, Bedstraw: 0 to 10 scale
# Method in brief: as §1
# blackgrass = assay type: in vivo, Alopecurus myosuroides; conditions: for Plant response rating, Blackgrass: 0 to 10 scale
# Method in brief: as §1
# cheatgrass = assay type: in vivo, Bromus secalinus; conditions: for Plant response rating, Cheatgrass: 0 to 10 scale
# Method in brief: as §1
# chickweed = assay type: in vivo, Stellaria media; conditions: for Plant response rating, Chickweed: 0 to 10 scale
# Method in brief: as §1
# cocklebur = assay type: in vivo, Xanthium pensylvanicum; conditions: for Plant response rating, Cocklebur: 0 to 10 scale
# Method in brief: as §1
# corn = assay type: in vivo, Zea mays; conditions: for Plant response rating, Corn: 0 to 10 scale
# Method in brief: as §1
# cotton = assay type: in vivo, Gossypium hirsutum; conditions: for Plant response rating, Cotton: 0 to 10 scale
# Method in brief: as §1
# crabgrass = assay type: in vivo, Digitaria spp.; conditions: for Plant response rating, Crabgrass: 0 to 10 scale
# Method in brief: as §1
# giant foxtail = assay type: in vivo, Setaria faberii; conditions: for Plant response rating, Giant foxtail: 0 to 10 scale
# Method in brief: as §1
# lambsquarters = assay type: in vivo, Chenopodium album; conditions: for Plant response rating, Lambsquarter: 0 to 10 scale
# Method in brief: as §1
# morningglory = assay type: in vivo, Ipomoea hederacea; conditions: for Plant response rating, Morningglory: 0 to 10 scale
# Method in brief: as §1
# rape = assay type: in vivo, Brassica napus; conditions: for Plant response rating, Rape: 0 to 10 scale
# Method in brief: as §1
# rice = assay type: in vivo, Oryza sativa; conditions: for Plant response rating, Rice: 0 to 10 scale
# Method in brief: as §1
# sorghum = assay type: in vivo, Sorghum bicolor; conditions: for Plant response rating, Sorghum: 0 to 10 scale
# Method in brief: as §1
# soybean = assay type: in vivo, Glycine max; conditions: for Plant response rating, Soybean: 0 to 10 scale
# Method in brief: as §1
# sugar beet = assay type: in vivo, Beta vulgaris; conditions: for Plant response rating, Sugar beet: 0 to 10 scale
# Method in brief: as §1
# velvetleaf = assay type: in vivo, Abutilon theophrasti; conditions: for Plant response rating, Velvetleaf: 0 to 10 scale
# Method in brief: as §1
# wheat = assay type: in vivo, Triticum aestivum; conditions: for Plant response rating, Wheat: 0 to 10 scale
# Method in brief: as §1
# wild buckwheat = assay type: in vivo, Polygonum convolvulus; conditions: for Plant response rating, Wild buckwheat: 0 to 10 scale
# Method in brief: as §1
# wild oat = assay type: in vivo, Avena fatua; conditions: for Plant response rating, Wild oat: 0 to 10 scale
# Method in brief: as §1
# purple nutsedge = assay type: in vivo, Cyperus rotundus; conditions: for Plant response rating, Nutsedge: 0 to 10 scale
# Method in brief: as §1
smiles,measurement,setting,value
CC(C)(C)C(=O)COc1cc(-c2nn3c(c2Cl)CCCC3)c(Cl)cc1Cl [Compound 77],"Plant response rating, Barley","barley; POSTEMERGENCE, Rate 50 g/ha",2
same,"Plant response rating, Barley","barley; PREEMERGENCE, Rate 50 g/ha",0
same,"Plant response rating (0 to 10 scale), Barley","barley; PREEMERGENCE, Rate 200 g/ha",0
same,"Plant response rating, Barley","barley; Rate 200 g/ha, POSTEMERGENCE",3
same,"Plant response rating, Barnyardgrass","barnyardgrass; POSTEMERGENCE, Rate 50 g/ha",4
same,"Plant response rating, Barnyardgrass","barnyardgrass; PREEMERGENCE, Rate 50 g/ha",0
same,"Plant response rating (0 to 10 scale), Barnyardgrass","barnyardgrass; PREEMERGENCE, Rate 200 g/ha",3
same,"Plant response rating, Barnyardgrass","barnyardgrass; Rate 200 g/ha, POSTEMERGENCE",8
same,"Plant response rating, Bedstraw","bedstraw; POSTEMERGENCE, Rate 50 g/ha",4
same,"Plant response rating, Bedstraw","bedstraw; PREEMERGENCE, Rate 50 g/ha",3
same,"Plant response rating (0 to 10 scale), Bedstraw","bedstraw; PREEMERGENCE, Rate 200 g/ha",10
same,"Plant response rating, Bedstraw","bedstraw; Rate 200 g/ha, POSTEMERGENCE",5
same,"Plant response rating, Blackgrass","blackgrass; POSTEMERGENCE, Rate 50 g/ha",2
same,"Plant response rating, Blackgrass","blackgrass; PREEMERGENCE, Rate 50 g/ha",2
same,"Plant response rating (0 to 10 scale), Blackgrass","blackgrass; PREEMERGENCE, Rate 200 g/ha",3
same,"Plant response rating, Blackgrass","blackgrass; Rate 200 g/ha, POSTEMERGENCE",3
same,"Plant response rating, Cheatgrass","cheatgrass; POSTEMERGENCE, Rate 50 g/ha",2
same,"Plant response rating, Cheatgrass","cheatgrass; PREEMERGENCE, Rate 50 g/ha",3
same,"Plant response rating (0 to 10 scale), Cheatgrass","cheatgrass; PREEMERGENCE, Rate 200 g/ha",5
same,"Plant response rating, Cheatgrass","cheatgrass; Rate 200 g/ha, POSTEMERGENCE",3
same,"Plant response rating, Chickweed","chickweed; POSTEMERGENCE, Rate 50 g/ha",2
same,"Plant response rating, Chickweed","chickweed; PREEMERGENCE, Rate 50 g/ha",0
same,"Plant response rating (0 to 10 scale), Chickweed","chickweed; PREEMERGENCE, Rate 200 g/ha",1
same,"Plant response rating, Chickweed","chickweed; Rate 200 g/ha, POSTEMERGENCE",3
same,"Plant response rating, Cocklebur","cocklebur; POSTEMERGENCE, Rate 50 g/ha",7
same,"Plant response rating, Cocklebur","cocklebur; PREEMERGENCE, Rate 50 g/ha",0
same,"Plant response rating (0 to 10 scale), Cocklebur","cocklebur; PREEMERGENCE, Rate 200 g/ha",1
same,"Plant response rating, Cocklebur","cocklebur; Rate 200 g/ha, POSTEMERGENCE",9
same,"Plant response rating, Corn","corn; POSTEMERGENCE, Rate 50 g/ha",3
same,"Plant response rating, Corn","corn; PREEMERGENCE, Rate 50 g/ha",0
same,"Plant response rating (0 to 10 scale), Corn","corn; PREEMERGENCE, Rate 200 g/ha",0
same,"Plant response rating, Corn","corn; Rate 200 g/ha, POSTEMERGENCE",3
same,"Plant response rating, Cotton","cotton; POSTEMERGENCE, Rate 50 g/ha",10
same,"Plant response rating, Cotton","cotton; PREEMERGENCE, Rate 50 g/ha",0
same,"Plant response rating (0 to 10 scale), Cotton","cotton; PREEMERGENCE, Rate 200 g/ha",0
same,"Plant response rating, Cotton","cotton; Rate 200 g/ha, POSTEMERGENCE",10
same,"Plant response rating, Crabgrass","crabgrass; POSTEMERGENCE, Rate 50 g/ha",5
same,"Plant response rating, Crabgrass","crabgrass; PREEMERGENCE, Rate 50 g/ha",2
same,"Plant response rating (0 to 10 scale), Crabgrass","crabgrass; PREEMERGENCE, Rate 200 g/ha",3
same,"Plant response rating, Crabgrass","crabgrass; Rate 200 g/ha, POSTEMERGENCE",6
same,"Plant response rating, Giant foxtail","giant foxtail; POSTEMERGENCE, Rate 50 g/ha",5
same,"Plant response rating, Giant foxtail","giant foxtail; PREEMERGENCE, Rate 50 g/ha",2
same,"Plant response rating (0 to 10 scale), Giant foxtail","giant foxtail; PREEMERGENCE, Rate 200 g/ha",2
same,"Plant response rating, Giant foxtail","giant foxtail; Rate 200 g/ha, POSTEMERGENCE",6
same,"Plant response rating, Lambsquarter","lambsquarters; POSTEMERGENCE, Rate 50 g/ha",10
same,"Plant response rating, Lambsquarter","lambsquarters; PREEMERGENCE, Rate 50 g/ha",10
same,"Plant response rating (0 to 10 scale), Lambsquarter","lambsquarters; PREEMERGENCE, Rate 200 g/ha",10
same,"Plant response rating, Lambsquarter","lambsquarters; Rate 200 g/ha, POSTEMERGENCE",10
same,"Plant response rating, Morningglory","morningglory; POSTEMERGENCE, Rate 50 g/ha",8
same,"Plant response rating, Morningglory","morningglory; PREEMERGENCE, Rate 50 g/ha",0
same,"Plant response rating (0 to 10 scale), Morningglory","morningglory; PREEMERGENCE, Rate 200 g/ha",0
same,"Plant response rating, Morningglory","morningglory; Rate 200 g/ha, POSTEMERGENCE",9
same,"Plant response rating, Rape","rape; POSTEMERGENCE, Rate 50 g/ha",6
same,"Plant response rating, Rape","rape; PREEMERGENCE, Rate 50 g/ha",0
same,"Plant response rating (0 to 10 scale), Rape","rape; PREEMERGENCE, Rate 200 g/ha",6
same,"Plant response rating, Rape","rape; Rate 200 g/ha, POSTEMERGENCE",7
same,"Plant response rating, Rice","rice; POSTEMERGENCE, Rate 50 g/ha",4
same,"Plant response rating, Rice","rice; PREEMERGENCE, Rate 50 g/ha",0
same,"Plant response rating (0 to 10 scale), Rice","rice; PREEMERGENCE, Rate 200 g/ha",0
same,"Plant response rating, Rice","rice; Rate 200 g/ha, POSTEMERGENCE",6
same,"Plant response rating, Sorghum","sorghum; POSTEMERGENCE, Rate 50 g/ha",5
same,"Plant response rating, Sorghum","sorghum; PREEMERGENCE, Rate 50 g/ha",0
same,"Plant response rating (0 to 10 scale), Sorghum","sorghum; PREEMERGENCE, Rate 200 g/ha",0
same,"Plant response rating, Sorghum","sorghum; Rate 200 g/ha, POSTEMERGENCE",5
same,"Plant response rating, Soybean","soybean; POSTEMERGENCE, Rate 50 g/ha",5
same,"Plant response rating, Soybean","soybean; PREEMERGENCE, Rate 50 g/ha",0
same,"Plant response rating (0 to 10 scale), Soybean","soybean; PREEMERGENCE, Rate 200 g/ha",0
same,"Plant response rating, Soybean","soybean; Rate 200 g/ha, POSTEMERGENCE",7
same,"Plant response rating, Sugar beet","sugar beet; POSTEMERGENCE, Rate 50 g/ha",10
same,"Plant response rating, Sugar beet","sugar beet; PREEMERGENCE, Rate 50 g/ha",3
same,"Plant response rating (0 to 10 scale), Sugar beet","sugar beet; PREEMERGENCE, Rate 200 g/ha",3
same,"Plant response rating, Sugar beet","sugar beet; Rate 200 g/ha, POSTEMERGENCE",10
same,"Plant response rating, Velvetleaf","velvetleaf; POSTEMERGENCE, Rate 50 g/ha",10
same,"Plant response rating, Velvetleaf","velvetleaf; PREEMERGENCE, Rate 50 g/ha",3
same,"Plant response rating (0 to 10 scale), Velvetleaf","velvetleaf; PREEMERGENCE, Rate 200 g/ha",7
same,"Plant response rating, Velvetleaf","velvetleaf; Rate 200 g/ha, POSTEMERGENCE",10
same,"Plant response rating, Wheat","wheat; POSTEMERGENCE, Rate 50 g/ha",2
same,"Plant response rating, Wheat","wheat; PREEMERGENCE, Rate 50 g/ha",0
same,"Plant response rating (0 to 10 scale), Wheat","wheat; PREEMERGENCE, Rate 200 g/ha",0
same,"Plant response rating, Wheat","wheat; Rate 200 g/ha, POSTEMERGENCE",5
same,"Plant response rating, Wild buckwheat","wild buckwheat; POSTEMERGENCE, Rate 50 g/ha",10
same,"Plant response rating, Wild buckwheat","wild buckwheat; PREEMERGENCE, Rate 50 g/ha",8
same,"Plant response rating (0 to 10 scale), Wild buckwheat","wild buckwheat; PREEMERGENCE, Rate 200 g/ha",9
same,"Plant response rating, Wild buckwheat","wild buckwheat; Rate 200 g/ha, POSTEMERGENCE",10
same,"Plant response rating, Wild oat","wild oat; POSTEMERGENCE, Rate 50 g/ha",1
same,"Plant response rating, Wild oat","wild oat; PREEMERGENCE, Rate 50 g/ha",0
same,"Plant response rating (0 to 10 scale), Wild oat","wild oat; PREEMERGENCE, Rate 200 g/ha",0
same,"Plant response rating, Wild oat","wild oat; Rate 200 g/ha, POSTEMERGENCE",3
same,"Plant response rating, Nutsedge","purple nutsedge; POSTEMERGENCE, Rate 50 g/ha",2
same,"Plant response rating, Nutsedge","purple nutsedge; PREEMERGENCE, Rate 50 g/ha",0
same,"Plant response rating (0 to 10 scale), Nutsedge","purple nutsedge; PREEMERGENCE, Rate 200 g/ha",0
same,"Plant response rating, Nutsedge","purple nutsedge; Rate 200 g/ha, POSTEMERGENCE",2
